Experimental data reported in US11891373B2, “Crystalline forms of 1-((2R,4R)-2-(1H-benzo[d]imidazol-2-yl)-1-methylpiperidin-4-yl)-3-(4-cyanophenyl)urea maleate” (priority 2015, dated 2024).
Counter-ions that a name gives are not always drawn.

How the values were obtained:
Format in all cases: physicochemical
[1] = Chemical stability of tablet cores (5% drug loading), open dish, HPLC/Purity analysis; details: 5% active drug loading; for % -(2S,4R)-Epimer 6 weeks @ 50° C./75% RH: open dish
Protocol: Comparative chemical and physical stability data was generated for tablet cores comprising glasdegib dihydrochloride monohydrate (diHCl.H2O) and glasdegib maleate (Form 1) stored at 50° C./75% RH for 6 weeks. The tablet cores were prepared by dry granulation processing in a formulation composition comprising microcrystalline cellulose, dicalcium phosphate, sodium starch glycolate and magnesium stearate at an active drug loading level of 5%. The tablet cores were stored in open dish (no packaging) orientation in a 50° C./75% RH chamber and analyzed after 6 weeks of storage. The analytical testing included HPLC/Purity analysis and solid state NMR (for solid form).
The primary degradation product monitored is the epimeric 1-((2S,4R)-2-(1H-benzo[d]imidazol-2-yl)-1-methylpiperidin-4-yl)-3-(4-cyanophenyl)urea, which has the structure: […]

[2] = Accelerated 21-day stability study of tablets, shelf-life prediction from (2S,4R)-epimer formation; details: 60 cc HDPE bottle, 30 count tablets, 25° C./60% RH, epimer limit NMT 0.5%
Protocol: See Waterman et al., Pharmaceutical Research, 24(4): 780-790 (2007). The tablets were stored in open glass bottles and exposed to various temperature, humidities and durations.
The recommended packaging for the glasdegib dihydrochloride monohydrate tablets is HDPE/IS Bottle, with desiccant. The labeled storage condition of this product is 15-25° C.
The recommended packaging for the glasdegib maleate tablets is HDPE/IS Bottle and no desiccant is required. The labeled storage condition of this product is 15-25° C.

[3] = Comparative thermal stability by Differential Scanning Calorimetry (DSC); details: 25° C. to 250° C. at 10° C./min, dry nitrogen purge
Protocol: Comparative thermal stability data was generated for glasdegib dihydrochloride monohydrate (diHCl.H2O) and glasdegib maleate (Form 1). Differential Scanning calorimetry (DSC) measurements were performed with Discovery DSC (TA instruments) equipped with a refrigerated cooling accessory. All the experiments were performed in standard/Tzero aluminum pans. The cell constant was determined using indium and temperature calibration was performed using indium and tin as standards. All the measurements were done under continuous dry nitrogen purge (50 mL/min). Approximately 2-5 mg of solid sample was weighed into a standard/Tzero aluminum pan, sealed non-hermetically and heated from 25° C. to 250° C. at 10° C./min heating rate. The experimental data were analyzed using commercially available software (TA Universal Analysis 2000/Trios software, TA Instruments).

% -(2S,4R)-Epimer 6 weeks @ 50° C./75% RH [1] | shelf-life predicted, with desiccant ([2]; with desiccant) | shelf-life predicted, stored without desiccant [2] | Thermal Stability (stable up to) [3] | % -(2S,4R)-Epimer Initial Level ([1]; before storage) | Structure (SMILES)
2.75% | approximately 5 years | less than 2 years | Stable up to 50 °C |  | CN1CC[C@@H](NC(=O)Nc2ccc(C#N)cc2)C[C@@H]1c1nc2ccccc2[nH]1 [Glasdegib dihydrochloride monohydrate]
0.55% |  | more than 6 years | Stable up to 207 °C | 0.024% | CN1CC[C@@H](NC(=O)Nc2ccc(C#N)cc2)C[C@@H]1c1nc2ccccc2[nH]1.O=C(O)/C=C\C(=O)O [Glasdegib maleate (Form 1), 1-((2R,4R)-2-(1H-benzo[d]imidazol-2-yl)-1-methylpiperidin-4-yl)-3-(4-cyanophenyl)urea maleate]
